Experimental data published in publication PMC9861858, “Stereoselective Synthesis and Antiproliferative Activities of Tetrafunctional Diterpene Steviol Derivatives” (International Journal of Molecular Sciences, 2023).
Converted amounts (≈) assume the structure as drawn. “Also recorded” adds a separate entry of the source.

Assays:
HeLa cells = test: MTT antiproliferative assay, HeLa; format: cell-based, human; details: for inhibition at 10 µM / inhibition at 30 µM: Homo sapiens, HeLa, 72 h, values <20% considered negligible, read-out: Growth inhibition (%) ± SEM, HeLa; for Antiproliferative effect on HeLa, in words: 10 and 30 μM
How it was run: (§1)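 Absorbance at 545 nm of DMSO-solubilised formazan, formed during a 4 h MTT incubation, gave growth inhibition after 72 h compound treatment at two concentrations, 10 and 30 μM. Seeding was 5000 cells per well with overnight attachment; medium was EMEM plus 10% fetal bovine serum.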

SiHa cells = test: MTT antiproliferative assay, SiHa; format: cell-based, human; details: for inhibition at 10 µM / inhibition at 30 µM: Homo sapiens, SiHa, 72 h, values <20% considered negligible, read-out: Growth inhibition (%) ± SEM, SiHa
How it was run: as §1

MCF-7 cells = test: MTT antiproliferative assay, MCF-7; format: cell-based, human; details: for inhibition at 10 µM / inhibition at 30 µM: Homo sapiens, 72 h, values <20% considered negligible, read-out: Growth inhibition (%) ± SEM, MCF-7; for inhibition at 10 µM: MCF7, 10 μM; for inhibition at 30 µM: MCF7, 30 μM; for Antiproliferative effect / selectivity on MCF-7, in words: 10 and 30 μM
How it was run: as §1

MDA-MB-231 cells = test: MTT antiproliferative assay, MDA-MB-231; format: cell-based, human; details: for inhibition at 10 µM / inhibition at 30 µM: Homo sapiens, 72 h, values <20% considered negligible, read-out: Growth inhibition (%) ± SEM, MDA-MB-231; for inhibition at 10 µM: MDA-MB-231, 10 μM; for inhibition at 30 µM: MDA-MB-231, 30 μM; for Antiproliferative effect / selectivity on MDA-MB-231, in words: 10 and 30 μM
How it was run: as §1

NIH/3T3 fibroblasts = test: MTT assay on fibroblasts (selectivity); format: cell-based, murine; details: Mus musculus, 72 h, values <20% considered negligible, read-out: Growth inhibition (%) ± SEM, NIH/3T3; for inhibition at 10 µM: NIH3T3, 10 μM; for inhibition at 30 µM: NIH3T3, 30 μM
How it was run: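 Cells grown in Eagle's minimal essential medium with 10% FBS at 37 °C, 5% CO2 were seeded at 5000/well, left overnight, then exposed to compounds at 10 μM and 30 μM for 72 h. Growth inhibition was read by MTT (4 h), formazan dissolved in DMSO, absorbance at 545 nm.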

[1] = Kinetic aqueous solubility; format: physicochemical; details: for solubility kinetic at 2 h: phosphate buffered saline with 5% DMSO, aqueous with cosolvent or surfactant or cyclodextrin, kinetic from dmso stock, after 2 h, at 37 °C in PBS, pH 7.4, 5% DMSO, target concentration 500 μM, mean ± S.E.M, n = 3; for Kinetic aqueous solubility, category in words: PBS pH 7.4, 37 °C, 2 h
How it was run: (§2)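 Kinetic solubility: filtrates quantified by HPLC-DAD-MS against 5–500 μM calibration, target concentration 500 μM. PAMPA-GI: pH 6.5 phosphate donor, pH 7.4 PBS/5% DMSO acceptor, phosphatidylcholine/cholesterol 2:1 in dodecane membrane, 4 h at 37 °C; Pe and membrane retention calculated from HPLC-DAD-MS concentrations.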

[2] = Intestinal-specific parallel artificial membrane permeability assay (PAMPA-GI); format: in vitro ADME; details: for Papp at 4 h, 500 µM: PAMPA, read-out: PAMPA-GI Pe; for Papp at 4 h, 500 µM / PAMPA-GI MR (membrane retention): gradient pH system (pH donor 6.5 → pH acceptor 7.4) after 4 h, at 37 °C, mean ± S.E.M, n = 3; for Intestinal-specific permeability (Pe), category in words: PAMPA-GI
How it was run: as §2

| SMILES | solubility kinetic at 2 h [1] [µM] | Papp at 4 h, 500 µM [2] [×10⁻⁶ cm/s] | PAMPA-GI MR (membrane retention) [2] [%] | melting point [°C] | Kinetic aqueous solubility, category in words [1] | Intestinal-specific permeability (Pe), category in words [2] | inhibition at 10 µM (HeLa cells) [%] | inhibition at 30 µM (HeLa cells) [%] | inhibition at 10 µM (SiHa cells) [%] | inhibition at 30 µM (SiHa cells) [%] | inhibition at 10 µM (MCF-7 cells) [%] | inhibition at 30 µM (MCF-7 cells) [%] | inhibition at 10 µM (MDA-MB-231 cells) [%] | inhibition at 30 µM (MDA-MB-231 cells) [%] | inhibition at 10 µM (NIH/3T3 fibroblasts) [%] | inhibition at 30 µM (NIH/3T3 fibroblasts) [%] | Antiproliferative effect / selectivity on MDA-MB-231, in words (MDA-MB-231 cells) | Antiproliferative effect on SiHa, in words (SiHa cells; 10 and 30 μM) | Antiproliferative effect / selectivity on MCF-7, in words (MCF-7 cells) | Antiproliferative effect on HeLa, in words (HeLa cells) |
| --- | --- | --- | --- | --- | --- | --- | --- | --- | --- | --- | --- | --- | --- | --- | --- | --- | --- | --- | --- | --- |
| COC(=O)[C@]1(C)CCC[C@@]2(C)C3CC[C@]4(O)C[C@@]3(CCC21)[C@@H](O)[C@]4(O)CN(C)Cc1ccccc1 (stereo partly drawn) [Compound 6, (4R,6aR,7R,8R,9S,11bS)-Methyl 8-((Benzyl(methyl)amino)methyl)-7,8,9-trihydroxy-4,11b-dimethyltetradecahydro-6a,9-methanocyclohepta[a]naphthalene-4-carboxylate] | 114 ± 16 (≈ 55.5 µg/mL) | 0.23 ± 0.08 | 67.3 ± 8.6 | 162 to 166 |  |  | < 20 | < 20 | < 20 | < 20 | < 20 | 51.7 ± 2.54 | < 20 | 82.56 ± 0.69 | < 20 | 89.3 ± 2.62 | slight selectivity |  |  |  |
| CC[C@@H](NC[C@@]1(O)[C@H](O)[C@@]23CCC4[C@@](C)(CCC[C@@]4(C)C(=O)OC)C2CC[C@]1(O)C3)c1ccccc1 (stereo partly drawn) [Compound 15, (4R,6aR,7R,8R,9S,11bS)-Methyl 7,8,9-Trihydroxy-4,11b-dimethyl-8-((((R)-1-phenylpropyl)amino)methyl)tetradecahydro-6a,9-methanocyclohepta[a]naphthalene-4-carboxylate] | 145 ± 28.2 (≈ 72.5 µg/mL) | 0.14 ± 0.04 | 46.8 ± 3.3 | 138 to 141 |  | poor permeability | 63.6 ± 1.54 | 97.25 ± 0.5 | 22.4 ± 1.42 | 95.67 ± 0.76 | 91 ± 1.52 | 96.47 ± 0.26 | 68.3 ± 2.86 | 95.63 ± 0.45 | 21 ± 0.96 | 94.23 ± 0.31 | decent activity; also recorded: smaller but also selective antiproliferative effect |  | strong and selective antiproliferative effect; also recorded: performed best | modest inhibition |
| CC[C@H](NC[C@@]1(O)[C@H](O)[C@@]23CCC4[C@@](C)(CCC[C@@]4(C)C(=O)OC)C2CC[C@]1(O)C3)c1ccccc1 (stereo partly drawn) [Compound 16, (4R,6aR,7R,8R,9S,11bS)-Methyl 7,8,9-Trihydroxy-4,11b-dimethyl-8-((((S)-1-phenylpropyl)amino)methyl)tetradecahydro-6a,9-methanocyclohepta[a]naphthalene-4-carboxylate] | 89.9 ± 8.5 (≈ 44.9 µg/mL) | 0.25 ± 0.09 | 44.6 ± 4.2 | 140 to 143 | moderate | poor permeability | 53.5 ± 1.99 | 98.33 ± 0.32 | < 20 | 96.73 ± 0.65 | 80.7 ± 2.37 | 97.1 ± 0.23 | 39.3 ± 1.99 | 96.65 ± 0.37 | < 20 | 95.12 ± 0.41 |  |  | higher selectivity; also recorded: performed best | moderate inhibition |

Continued, in another order:

| solubility kinetic at 2 h [1] [µM] | Papp at 4 h, 500 µM [2] [×10⁻⁶ cm/s] | PAMPA-GI MR (membrane retention) [2] [%] | melting point [°C] | Kinetic aqueous solubility, category in words [1] | Intestinal-specific permeability (Pe), category in words [2] | SMILES | inhibition at 10 µM (HeLa cells) [%] | inhibition at 30 µM (HeLa cells) [%] | inhibition at 10 µM (SiHa cells) [%] | inhibition at 30 µM (SiHa cells) [%] | inhibition at 10 µM (MCF-7 cells) [%] | inhibition at 30 µM (MCF-7 cells) [%] | inhibition at 10 µM (MDA-MB-231 cells) [%] | inhibition at 30 µM (MDA-MB-231 cells) [%] | inhibition at 10 µM (NIH/3T3 fibroblasts) [%] | inhibition at 30 µM (NIH/3T3 fibroblasts) [%] | Antiproliferative effect / selectivity on MDA-MB-231, in words (MDA-MB-231 cells) | Antiproliferative effect on SiHa, in words (SiHa cells; 10 and 30 μM) | Antiproliferative effect / selectivity on MCF-7, in words (MCF-7 cells) | Antiproliferative effect on HeLa, in words (HeLa cells) |
| --- | --- | --- | --- | --- | --- | --- | --- | --- | --- | --- | --- | --- | --- | --- | --- | --- | --- | --- | --- | --- |
| 291 ± 35.5 (≈ 137 µg/mL) | 0.64 ± 0.03 | 29.8 ± 0.3 | 119 to 122 |  |  | COC(=O)[C@]1(C)CCC[C@@]2(C)C3CC[C@]4(O)C[C@@]3(CCC21)[C@@H](O)[C@]4(O)CNCc1ccccc1 (stereo partly drawn) [Compound 5, (4R,6aR,7R,8R,9S,11bS)-Methyl 8-((Benzylamino)methyl)-7,8,9-trihydroxy-4,11b-dimethyltetradecahydro-6a,9-methanocyclohepta[a]naphthalene-4-carboxylate] | < 20 | 95.77 ± 0.26 | < 20 | < 20 | 59.6 ± 2.73 | 96.42 ± 0.27 | 34.6 ± 2.98 | 95.8 ± 0.63 | < 20 | 101.1 ± 0.43 |  |  |  |  |
| 42.1 ± 10.8 (≈ 20.6 µg/mL) | 0.4 ± 0.04 | 63.8 ± 4.9 | 195 to 197 | moderate |  | COC(=O)[C@]1(C)CCC[C@@]2(C)C3CC[C@]4(O)C[C@@]3(CCC21)[C@@H](O)[C@]4(O)CNCc1ccc(F)cc1 (stereo partly drawn) [Compound 9, (4R,6aR,7R,8R,9S,11bS)-Methyl 8-(((4-Fluorobenzyl)amino)methyl)-7,8,9-trihydroxy-4,11b-dimethyltetradecahydro-6a,9-methanocyclohepta[a]naphthalene-4-carboxylate] | 42.5 ± 1.42 | 96.8 ± 0.74 | 54.6 ± 3.42 | 95.17 ± 0.37 | 96.4 ± 0.47 | 96.19 ± 0.65 | 83 ± 1.71 | 93.63 ± 0.36 | 25.9 ± 0.94 | 92.4 ± 1.01 | decent activity; also recorded: smaller but also selective antiproliferative effect | modest inhibition | strong and selective antiproliferative effect; also recorded: performed best |  |
